Assay results as given in PubChem BioAssay (NCI).
Values joined by “and” are separate entries in the source; they are usually repeats but may differ in a detail not shown here. Equal values may be shown once.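 Interpolation was linear, between the two tested concentrations surrounding the appropriate level; five concentrations were tested over 48 hours in 96-well plates. GI50 = concentration required for 50% inhibition of growth. TGI: total growth inhibition.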

Legend:
Assay in all cases: growth of human tumour cells (NCI), 48 h
[1] = system: HOP-62 NSCLC
[2] = system: SR leukemia
[3] = system: 786-0 renal
[4] = system: MDA-MB-231 breast
[5] = system: OVCAR-3 ovarian
[6] = system: T-47D breast
[7] = system: HCT-15 colon
[8] = system: SK-MEL-5 melanoma
[9] = system: KM12 colon
[10] = system: PC-3 prostate

SMILES | GI50 [1] [µM] | TGI [1] | GI50 [2] [µM] | TGI [2] [µM] | GI50 [3] [µM] | TGI [3] [µM] | GI50 [4] [µM] | TGI [4] | GI50 [5] [µM] | TGI [5] | GI50 [6] [µM] | TGI [6] [µM] | GI50 [7] [µM] | TGI [7] | GI50 [8] [µM] | TGI [8] [µM] | GI50 [9] [µM] | TGI [9] | GI50 [10] [µM] | TGI [10]
O=C(Nc1cc(C(F)(F)F)cc(C(F)(F)F)c1)Nc1ccc(OCc2nnc(-c3ccc(Cl)cc3)o2)c(F)c1 | 2.11 | 6.12 µM | 2.38 | 10 | 2 | 4.68 | 1.99 | 4.93 µM | 1.08 | 3.92 µM | 1.85 | 8.04 | 1.99 | 14 µM | 1.51 | 2.96 | 1 | 5.72 µM | 0.668 | 11.2 µM
COc1cc2oc(-c3cccc(C(=O)Nc4ccc(C)cc4)c3)cc(=O)c2c(OC)c1OC | 3.68 | 28.3 µM | 2.53 | 40.6 | 2.06 | 6.11 | 0.468 | 3.23 µM | 5.39 | > 100 µM | 1.94 | > 100 | 1.96 | > 100 µM | 1.03 | 2.42 | 3.66 | > 100 µM | 3.49 | > 100 µM
O=C1Nc2ccc(CN3CCOC3=O)cc2/C1=C/c1cc(CN2CCOCC2)c[nH]1 | 42.7 | > 100 µM | 7.43 | 73.9 | 62.5 | > 100 | 78.8 | > 100 µM | 47.6 | > 100 µM | 24.9 | > 88.3 | 29.4 | > 100 µM | 19.5 | 43.5 | 4.08 | > 100 µM | 36.9 | > 100 µM
CNC12C3C4C1C1C2C3C41C(=O)N[C@H](C(=O)N(C)[C@H](C[C@@H](OC(C)=O)c1nc(C(=O)N[C@@H](Cc2ccccc2)C[C@H](C)C(=O)OC)cs1)C(C)C)C1CC1 (some centres undefined) | 0.501 | > 15 µM | 0.0179 | > 7.82 | 0.577 | > 15 | 0.402 | 3.33 µM | 0.0472 | 0.372 µM | 1.38 | > 15 | 0.831 | > 15 µM | 0.155 | 1.41 | 0.276 | 6.69 µM | 0.391 | > 15 µM
O=C(c1ccccc1)c1ccc(O)c2ncccc12 | 5.31 | 48.6 µM | 1.15 | > 100 | 5.09 | 26.5 | 3.6 | 64.3 µM | 2.1 | 6.99 µM | 3.14 | 15.3 | 1.66 | 25.9 µM | 4.72 | 26.6 | 3.25 | 16.9 µM | 4.36 | 97.6 µM
CC(=O)N1N=C(c2ccc(Nc3nc(Nc4ccc(F)cc4)nc(Nc4ccc(Cl)cc4)n3)cc2)CC1c1ccc(N(C)C)cc1 (centres undefined) | 3.25 | 13.2 µM | 2.1 | 5.18 | 3.65 | 13.7 | 5.66 | 21 µM | 9.51 | 31.7 µM | 2.01 | 16 | 2.64 | 30.5 µM | 6.68 | 19.3 | 6.02 | 20.9 µM | 3.18 | > 64.8 µM
C=C1[C@@H](O)C[C@H]2C(C)(C)C[C@H](Cl)C[C@]2(C)[C@H]1C[C@H](O)[C@H]1CC(=O)NC1=O | 0.0116 | 0.0961 µM | 0.0142 |  | 0.0149 | 0.136 | 0.015 | 0.19 µM | 0.0191 | 0.289 µM | < 0.0113 | 0.0819 | 0.0255 | 0.596 µM | < 0.0134 | 0.0363 | < 0.012 | 0.441 µM | 0.0174 | 0.264 µM
COc1ccc(C2CC(c3cccc(OC)c3)=NN2C(=O)c2cc(OC)c(OC)c(OC)c2)cc1 (centres undefined) | > 23.1 | > 100 µM | 0.359 | > 100 | 2.25 | > 100 | 1.94 | > 100 µM |  |  | 3.02 | > 100 | 1.07 | > 100 µM | 0.534 | > 40.4 | 0.717 | > 100 µM | 0.882 | > 100 µM
Clc1ccc(-c2nc(C(Cl)Cl)nc3cc(-c4ccccc4)nn23)cc1 | 1.22 | 4.57 µM | 0.645 | 3.94 | > 50 | > 50 | 1.8 | > 50 µM | 0.925 | 2.01 µM | 1.73 | > 50 | 1.3 | > 50 µM | > 50 | > 50 | 0.884 | 2.89 µM | 1.74 | > 50 µM
COc1ccc(C2SCC(=O)N2NC(=O)C(O)c2ccccc2)cc1 (centres undefined) | > 100 | > 100 µM | > 100 | > 100 | > 100 | > 100 | > 100 | > 100 µM | > 100 | > 100 µM | > 100 | > 100 | > 100 | > 100 µM | > 100 | > 100 | > 100 | > 100 µM | > 100 | > 100 µM
Nc1cc(N)cc(Cc2ccccc2)c1 |  | > 100 µM |  | > 100 |  | > 100 |  | > 100 µM |  | > 100 µM |  | > 100 |  | > 100 µM |  | > 100 |  | > 100 µM |  | > 100 µM
Clc1ccc(N/N=C(\c2ccccc2)c2ccccn2)nc1 | 0.31 | > 33.7 µM and 12.3 µM | 0.0769 | 3.5 | 0.291 | 15.8 | 0.237 | > 65.8 µM and 48.4 µM | 0.0379 | 11.2 µM and > 28.6 µM | < 0.0163 | > 100 | 0.0505 | > 38.3 µM and 14.1 µM | 0.32 |  | 0.39 | > 41.4 µM and 5.81 µM | 0.112 | > 67.8 µM and 28.9 µM
Cc1ccc(NC(=O)N2CCCCC2)cc1[N+](=O)[O-] | > 100 | > 100 µM | > 100 | > 100 | > 100 | > 100 | > 100 | > 100 µM | > 100 | > 100 µM | 77.1 | > 100 | > 100 | > 100 µM | > 100 | > 100 | > 100 | > 100 µM | > 100 | > 100 µM
Oc1c(Cl)cc(CN(Cc2cc(Cl)c(O)c(Cl)c2)C2CCCCC2)cc1Cl |  | > 100 µM |  | > 100 |  | > 100 |  | > 100 µM |  | > 100 µM |  | > 100 |  | > 100 µM |  | > 100 |  | > 100 µM |  | > 100 µM
CN(N=O)C(=O)Nc1ccc(C(=O)O)cc1 |  | > 100 µM |  | > 100 |  | > 100 |  | > 100 µM |  | > 100 µM |  | > 100 |  | > 100 µM |  | > 100 |  | > 100 µM |  | > 100 µM
C=C(CN(C)Cc1ccccc1)c1ccc(C(=O)Nc2ccccc2N)cc1 | 3.61 | > 50 µM | 2.87 | > 50 | 5.21 | 27.3 | 0.739 | 5.78 µM | 3.56 | 16 µM | 0.611 | 4.75 | 2.2 | 12.2 µM | 6.72 | 14.6 | 1.23 | 7.26 µM | 4.95 | > 50 µM
COC(=O)C1=CO[C@@H](OC2OC(CO)C(O)C(O)C2O)[C@@H]2[C@H](C)[C@@H](O)[C@@H](O)[C@]12O (some centres undefined) |  | > 100 µM |  | > 100 |  | > 100 |  | > 100 µM |  | > 100 µM |  | > 100 |  | > 100 µM |  | > 100 |  | > 100 µM |  | > 100 µM
CCOC(=O)Nc1ccc(C(=O)/C=C/c2ccccc2)cc1 | 20.4 | 47.3 µM | 3.68 | > 100 | 26.3 | 81.5 | 33.4 | > 100 µM | 18.9 | 75.3 µM | 21.6 | > 100 | 27.2 | > 100 µM | 27.1 | > 100 | 4.8 | 17.6 µM | 30.9 | > 100 µM
N#CSCC1CC(O)(c2ccccc2)CC(c2ccc(Cl)cc2)O1 (centres undefined) | 4.46 | 14.9 µM | 1.65 | 5.02 | 2.14 | 4.66 | 2.8 | 11.2 µM | 1.72 | 3.14 µM | 1.7 | 6.27 | 2.4 | 8.05 µM | 0.559 | 14.9 | 1.77 | 3.36 µM | 2.47 | 7.49 µM
CC(C)C[C@H]1C(=O)N2CCC[C@H]2[C@]2(O)O[C@](NC(=O)[C@@H]3C=C4c5cccc6[nH]c(Br)c(c56)C[C@H]4N(C)C3)(C(C)C)C(=O)N12 |  | > 100 µM |  | > 100 |  | > 100 |  | > 100 µM |  | > 100 µM |  | > 100 |  | > 100 µM |  | > 100 |  | > 100 µM |  | > 100 µM
Cc1cccc2c(N=Nc3ccccc3[N+](=O)[O-])c(O)[nH]c12 |  | 21.8 µM |  | 38.7 |  | 11.8 |  | 6.58 µM |  | 30 µM |  | 21.9 |  | 97.7 µM |  | > 81.9 |  | > 58.6 µM |  | 38.4 µM
Cc1ccc(S(=O)(=O)NNC(C[N+](=O)[O-])c2ccccc2)cc1 (centres undefined) |  | 74.5 µM |  | 5.56 |  | > 100 |  | 81.3 µM |  | 79.4 µM |  | 57.5 |  | 39.5 µM |  | 36.7 |  | > 100 µM |  | > 100 µM
CN(C)CCCN1c2ccc(O)cc2Sc2ccc(Cl)cc21 |  | 29.5 µM |  | 15.8 |  | 24 |  | 23.6 µM |  | 24.5 µM |  | 38.7 |  | 29 µM |  | 28.2 |  | 23 µM |  | 18 µM
CCCC(CCC)Oc1ccc(CCCC2=C(O)c3ccccc3C(=O)C2=O)cc1 | 7.6 | 22.3 µM | 3.09 | 8.3 | 4.11 | 16.8 | 12.3 | 28.9 µM | 4.33 | 15 µM | 12 | 31.6 | 3.76 | 15 µM | 3.14 | 13.6 | 6.18 | 22.3 µM | 3 | 15.7 µM
OCc1ncc(-c2ccccc2)s1 | > 100 | > 100 µM | > 100 | > 100 | > 100 | > 100 | > 100 | > 100 µM | > 100 | > 100 µM | > 100 | > 100 | > 100 | > 100 µM | > 100 | > 100 | > 100 | > 100 µM | > 100 | > 100 µM
CCCC(=O)O[C@]1(C)CC[C@@H]2[C@H]3[C@@H]1[C@@H]1C/C(C)=C\CC[C@](C)(OC(=O)[C@@H]2C)[C@H]3O1 | 60.3 | > 100 µM | 13.2 | 26.9 | 72.6 | > 100 | 25.5 | 94.4 µM | 30.3 | > 100 µM | > 100 | > 100 | 44.4 | > 100 µM | 13.4 | 33.1 | 32.8 | > 100 µM | 16.2 | 41.3 µM
Cc1[nH]c(=O)nc(N/N=C/c2ccc(Cl)cc2)c1C(=O)Nc1ccc(Cl)cc1 |  | 26 µM |  | > 100 |  | 47.6 |  | 26.2 µM |  | 35.6 µM |  | > 85.4 |  | > 100 µM |  | 48.4 |  | > 100 µM |  | > 100 µM
COc1ccc(Nc2ncc(-c3ccccc3)o2)cc1OC | > 25 | > 25 µM |  |  | 11.6 | > 25 | > 25 | > 25 µM | > 15.6 | > 25 µM | 24.7 | > 25 | 10.6 | > 25 µM | > 25 | > 25 | 4.35 | > 25 µM | 17.6 | > 25 µM
